In ChEMBL document CHEMBL1153341, “Synthesis of new camptothecin analogs with improved antitumor activities” (Bioorg Med Chem Lett, 2009):
The source made the active and inactive calls. The calls are words filed in the database; no cut-off is given here.

Tests used:
QG-56 = assay: Antiproliferative activity against human QG56 cells after 3 days; type: functional, cell-based; conditions: QG-56, 72 h
HCT-116 [1] = assay: Antiproliferative activity against human HCT116 cells after 3 days; type: functional, cell-based; conditions: HCT-116, 72 h
NCI-H460 [2] = assay: Antiproliferative activity against human NCI-H460 cells after 3 days; type: functional, cell-based; conditions: NCI-H460, 72 h
PC-6 [3] = assay: Antiproliferative activity against human PC6 cells carrying pRC after 6 days; type: functional, cell-based; conditions: PC-6, 144 h
PC-6 [4] = assay: Ratio of IC50 for human PC6 expressing BCRP cells to IC50 for human PC6 cells carrying pRC; type: functional
PC-6 [5] = assay: Antiproliferative activity against human PC6 expressing BCRP cells after 6 days; type: functional, cell-based; conditions: PC-6, 144 h
DNA topoisomerase 1 = molecular target: T1, DNA topoisomerase 1 (Homo sapiens, UniProt P11387); assay: Inhibition of human topoisomerase 1
T1 sequence (P11387 whole entry): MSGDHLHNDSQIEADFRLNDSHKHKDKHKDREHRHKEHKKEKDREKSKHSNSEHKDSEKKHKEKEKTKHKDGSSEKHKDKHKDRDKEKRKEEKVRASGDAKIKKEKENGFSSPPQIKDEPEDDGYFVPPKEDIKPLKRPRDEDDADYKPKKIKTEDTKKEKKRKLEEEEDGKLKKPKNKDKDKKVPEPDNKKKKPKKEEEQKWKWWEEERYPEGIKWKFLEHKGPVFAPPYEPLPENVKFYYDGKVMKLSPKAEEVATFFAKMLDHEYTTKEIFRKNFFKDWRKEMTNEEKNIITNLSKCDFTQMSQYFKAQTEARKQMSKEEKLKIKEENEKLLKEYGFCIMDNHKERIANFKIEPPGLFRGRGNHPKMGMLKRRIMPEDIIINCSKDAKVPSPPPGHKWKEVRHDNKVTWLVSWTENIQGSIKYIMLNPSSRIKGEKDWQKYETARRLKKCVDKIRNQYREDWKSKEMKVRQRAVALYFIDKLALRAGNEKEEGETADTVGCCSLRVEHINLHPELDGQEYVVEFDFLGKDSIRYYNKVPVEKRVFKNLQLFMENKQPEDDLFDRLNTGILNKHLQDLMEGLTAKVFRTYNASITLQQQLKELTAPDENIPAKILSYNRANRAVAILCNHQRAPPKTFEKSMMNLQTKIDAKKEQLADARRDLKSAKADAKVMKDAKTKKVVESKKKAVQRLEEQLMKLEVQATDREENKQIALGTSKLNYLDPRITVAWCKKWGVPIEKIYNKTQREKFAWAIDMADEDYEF

[6] = Toxicity to iv dosed mouse administered as single bolus dose for 3 weeks; type: organism-based; conditions: in vivo
HCT-116 [7] = assay: Antitumor activity against BCRP-negative human HCT116 cells xenografted in mouse at 40 mg/kg, iv administered as single bolus dose for 3 weeks; type: functional, organism-based; set-up: dose 40 mg/kg
NCI-H460 [8] = assay: Antitumor activity against BCRP-positive human NCI-H460 cells xenografted in mouse at 100 mg/kg, iv administered as single bolus dose for 3 weeks; type: functional, organism-based; set-up: dose 100 mg/kg
HCT-116 [9] = assay: Antitumor activity against BCRP-negative human HCT116 cells xenografted in mouse at 100 mg/kg, iv administered as single bolus dose for 3 weeks; type: functional, organism-based; set-up: dose 100 mg/kg
NCI-H460 [10] = assay: Antitumor activity against BCRP-positive human NCI-H460 cells xenografted in mouse at 40 mg/kg, iv administered as single bolus dose for 3 weeks; type: functional, organism-based; set-up: dose 40 mg/kg

Row | Structure (SMILES) | IC50 (QG-56) [nM] | IC50 (HCT-116 [1]) [nM] | IC50 (NCI-H460 [2]) [nM] | further results
1 | CC[C@@]1(O)C(=O)OCc2c1cc1n(c2=O)Cc2c-1nc1cccc3c1c2N(CCc1ccccc1)C(=O)N3 | 1.2 | 0.25 | 0.38 | 
2 | CC[C@@]1(O)C(=O)OCc2c1cc1n(c2=O)Cc2c-1nc1cccc3c1c2N(CCC(C)C)C(=O)N3 | 0.58 | 0.05 | 0.72 | 
3 | CCc1c2c(nc3ccc(O)cc13)-c1cc3c(c(=O)n1C2)COC(=O)[C@]3(O)CC [7-ETHYL-10-HYDROXYCAMPTOTHECIN] | 2.8 | 0.55 | 3.3 | IC50 (PC-6 [3]): 0.43 nM; Ratio IC50 (PC-6 [4]): 12; IC50 (PC-6 [5]): 5.1 nM; IC50 (DNA topoisomerase 1): 5500 nM
4 | CCCCN1C=Nc2cccc3nc4c(c1c23)Cn1c-4cc2c(c1=O)COC(=O)[C@]2(O)CC | 2.3 | 0.52 | 1.6 | 
5 | CCc1c2c(nc3ccc(OC(=O)N4CCC(N5CCCCC5)CC4)cc13)-c1cc3c(c(=O)n1C2)COC(=O)[C@]3(O)CC [IRINOTECAN] |  |  |  | MTD at 504 h [6]: 100 mg/kg
6 | CC[C@@]1(O)C(=O)OCc2c1cc1n(c2=O)Cc2c-1nc1cccc3c1c2N(CCC(C)C)C=N3 | 0.25 | < 0.04 | 0.11 | 
7 | CCCCCN1C(=O)Nc2cccc3nc4c(c1c23)Cn1c-4cc2c(c1=O)COC(=O)[C@]2(O)CC | 8.5 | 0.85 | 8.2 | 
8 | CC[C@@]1(O)C(=O)OCc2c1cc1n(c2=O)Cc2c-1nc1cccc3c1c2N(CCN1CCOCC1)C=N3 | 9.4 | 2.2 | 7.2 | 
9 | CCCCCN1C=Nc2cccc3nc4c(c1c23)Cn1c-4cc2c(c1=O)COC(=O)[C@]2(O)CC | 2.3 | 0.36 | 2.3 | Activity (HCT-116 [7]): Active; IC50 (PC-6 [3]): 0.18 nM; Ratio IC50 (PC-6 [4]): 2; Activity (NCI-H460 [8]): Active; Activity (HCT-116 [9]): Active; IC50 (PC-6 [5]): 0.35 nM; IC50 (DNA topoisomerase 1): 2300 nM; MTD at 504 h [6]: 40 mg/kg; Activity (NCI-H460 [10]): Active
10 | CC[C@@]1(O)C(=O)OCc2c1cc1n(c2=O)Cc2c-1nc1cccc3c1c2N(CCC(C)C)C(=S)N3 | 0.16 | 0.02 | 0.08 | 
11 | CC[C@@]1(O)C(=O)OCc2c1cc1n(c2=O)Cc2c-1nc1cccc3c1c2N(CCC(C)C)C(CO)=N3 | 1.8 | 0.44 | 0.52 | 
12 | CC[C@@]1(O)C(=O)OCc2c1cc1n(c2=O)Cc2c-1nc1cccc3c1c2N(CCN1CCOCC1)C(=O)N3 | 18 | 3.6 | 26 | 
13 | CC[C@@]1(O)C(=O)OCc2c1cc1n(c2=O)Cc2c-1nc1cccc3c1c2N(CCc1ccccc1)C=N3 | 2.1 | 0.36 | 0.91 | 
14 | CCCCCN1C(C)=Nc2cccc3nc4c(c1c23)Cn1c-4cc2c(c1=O)COC(=O)[C@]2(O)CC | 1.8 | 0.12 | 0.66 | 
15 | CCCCN1C(=O)Nc2cccc3nc4c(c1c23)Cn1c-4cc2c(c1=O)COC(=O)[C@]2(O)CC | 1.2 | 0.4 | 0.99 | 
